Several values for one entry are separate records, joined by “and”; a condition that tells them apart may be missing. Equal values may be shown once.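 Values below derive from 48-hour exposures of cells grown in 96-well plates, with endpoints linearly interpolated between the two concentrations bracketing the appropriate inhibition level. At the GI50, growth is halved. TGI denotes the concentration required for complete inhibition of growth.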

Holding throughout (test): NCI-60 cell line screen, 48 h
The subject of assay [1] is LOX IMVI melanoma.
Assay [2] concerns TK-10 renal.
Assay [3] has as its system RPMI-8226 leukemia.
Assay [4] relates to M14 melanoma.
In assay [5] the test system is SR leukemia.
Assay [6] relates to SN12C renal.
Assay [7] has as its system MALME-3M melanoma.
Assay [8] relates to UACC-257 melanoma.
Assay [9] concerns ACHN renal.
Assay [10] concerns HCC-2998 colon.

Take `CN(C)CCNC(=O)Nc1ccc(N(C)c2ccnc(Nc3ccc(CS(C)(=O)=O)cc3)n2)cc1`: the GI50 in assay [1] is > 25000 nM; in assay [2], > 25000 nM; in assay [3], > 25000 nM; in assay [4] it was > 25000 nM; in assay [5] it was 14800 nM; in assay [6], > 25000 nM. The GI50 was > 25000 nM in [7], > 25000 nM in assay [8], > 25000 nM in assay [9] and > 25 µM in assay [10]. In addition, the TGI in [1], in assay [2], in assay [3], in [4], in assay [5] and in assay [6] was > 25 µM each time. In addition, the TGI in [7], in [8], in assay [9] and in assay [10] was > 25 µM in each case.

Consider `Nc1ncnc2c1c(-c1ccc(Oc3ccccc3)cc1)nn2CC1SSCC1O` (centres undefined), for which the GI50 in [1] was 335 nM; in assay [2], 1910 nM; in [3], 5050 nM; in assay [4] it was 60.9 nM; in assay [5], 251 nM; in [6] it was 4970 nM. Further, the GI50 in assay [7] was 847 nM; in assay [8], 2070 nM; in [9] it was 4270 nM; in assay [10] it was 6.75 µM. The TGI in assay [1] was 4.96 µM; in assay [2] it was 6.34 µM; in assay [3], 21.3 µM; in [4], 0.121 µM; in assay [5], 2.11 µM; in assay [6], 15.2 µM. The TGI came out at 3.78 µM in [7], 10.6 µM in [8], 14.9 µM in assay [9] and 20.5 µM in assay [10].

With `C[C@]12CCc3nc(Nc4ccc(O)cc4)sc3C1=CC[C@@H]1[C@@H]2CC[C@]2(C)/C(=N/NC(N)=S)CC[C@@H]12`, the GI50 in assay [1] is 1520 nM; in [2] it was 2130 nM; in assay [3], 1490 nM; in [4], 1180 nM; in assay [5], 454 nM; in assay [6] it was 1530 nM. The GI50 in assay [7] was 1120 nM; in assay [8], 2040 nM; in assay [9], 1590 nM; in assay [10] it was 1.89 µM. Moreover, the TGI in [1] was 2.86 µM; in assay [2], 4.35 µM; in assay [3], 5.8 µM; in assay [4], 2.9 µM; in assay [5] it was > 100 µM; in assay [6], 3.37 µM. Besides, the TGI in [7] turned out to be 2.38 µM; in assay [8] it was 5.61 µM; in assay [9], 2.99 µM; in assay [10], 4.3 µM.

As to `Cn1cc(-c2ccc3ncc(-c4ccc(CC(=O)Nc5cc(C(C)(C)C)nn5C)cc4)cc3c2)cn1`, the GI50 in assay [1] was 1230 nM; in [2], 1520 nM; in assay [3] it was 640 nM; in assay [4], 984 nM; in [5], 967 nM; in assay [6] it was 854 nM. Besides, the GI50 in assay [7] was 721 nM; in [8], 1450 nM; in [9], 689 nM; in [10], 2.73 µM. Further, the TGI in assay [1] is > 20 µM; in assay [2] it was > 20 µM; in assay [3], 4.07 µM; in [4], > 20 µM; in [5], > 20 µM; in assay [6], > 20 µM. For the same compound, the TGI in [7], in [8], in assay [9] and in assay [10] was > 20 µM in each case.

As to `Cc1ccc(C(=O)Nc2ccc(Oc3cc4cnn(C)c4cc3-c3cn[nH]c3)c(F)c2)c(=O)n1-c1ccc(F)cc1`, the GI50 is 2460 nM in assay [1]; 1950 nM in assay [2]; > 48000 nM in assay [3]; 2960 nM in [4]; > 38800 nM in [5]; 3080 nM in assay [6]. Moreover, the GI50 in assay [7] is 3350 nM; in assay [8], 6800 nM; in [9], 2900 nM; in [10] it was > 100 µM. The TGI was > 100 µM in [1]; 35.1 µM in [2]; > 100 µM in assay [3]; > 100 µM in [4]; > 100 µM in assay [5]; > 100 µM in assay [6]. In addition, the TGI in assay [7], in assay [8], in assay [9] and in assay [10] was > 100 µM throughout.

For `O=[N+]([O-])c1cccnc1S(=O)(=O)c1ccccc1`, the TGI in assay [1] was 15.7 µM; in [2], 22.2 µM; in assay [3] it was 36.4 µM; in assay [4] it was 22.5 µM; in assay [5], > 100 µM; in assay [6], 23.5 µM. Also, the TGI came to 23.8 µM in assay [7], 33.4 µM in assay [8], 11.4 µM in assay [9] and 39.6 µM in assay [10].

On to `CC[n+]1c(-c2ccccc2)c2cc(N)ccc2c2ccc(N)cc21`, for which the GI50 is 2310 nM and 3120 nM and 7530 nM in assay [1]; 2380 nM in assay [2]; 2230 nM and 1020 nM and 2640 nM in [3]; 3840 nM in [4]; 801 nM and 1690 nM and 4080 nM in assay [5]; 306 nM in [6]. For the same compound, the GI50 in assay [7] was 631 nM; in [8], 1220 nM; in assay [9], 14100 nM; in assay [10], 1.22 µM. Besides, the TGI in [1] was 13.7 µM and 21.2 µM and 34.7 µM; in assay [2], 19.7 µM and 68.8 µM; in assay [3] it was > 100 µM and 10.4 µM and 24.3 µM; in assay [4], 16.6 µM and 44.5 µM; in assay [5] it was > 100 µM and 13 µM; in assay [6], 12 µM and 19.7 µM and 7.37 µM. In addition, the TGI in [7] is 2.9 µM and 6.43 µM; in assay [8], 4.8 µM and 10 µM and 6.4 µM; in assay [9] it was > 100 µM; in assay [10], 3.31 µM and 16.5 µM and 19.8 µM.

Turning to `CC(C)(C)C1=NO[C@H]2[C@@H](NC(=O)c3ccccc3)CC[C@@H]12`, the TGI in assay [1], in assay [2], in assay [3], in assay [4], in assay [5] and in assay [6] was > 100 µM throughout. Besides, the TGI in assay [7], in [8], in assay [9] and in [10] was > 100 µM in each case.

For the compound `O=C1C2C(C(=O)N1Cc1ccccc1)N(Cc1ccccc1)C(=O)N2Cc1ccccc1` (centres undefined), the TGI in [1], in assay [2], in assay [3], in [4], in assay [5] and in assay [6] was > 100 µM each time. In addition, the TGI in assay [7], in [8], in assay [9] and in assay [10] was > 100 µM each time.

`CNC(=O)OCc1nc(SSc2nc(COC(=O)NC)c(COC(=O)NC)n2C)n(C)c1COC(=O)NC`: the TGI in [1], in assay [2], in [3], in assay [4], in assay [5] and in assay [6] was > 100 µM in each case. Also, the TGI in [7], in [8], in assay [9] and in assay [10] was > 100 µM in each case.

In the case of `N=C(N)n1cc(/C=N/N=C(N)N)cn1`, the TGI in assay [1], in assay [2], in [3], in assay [4], in assay [5] and in assay [6] was > 100 µM in each case. Also, the TGI in assay [7], in assay [8], in assay [9] and in assay [10] was > 100 µM throughout.

For the compound `C/C(=N\NC(=S)N1CCC1)c1ccccn1`, the GI50 in assay [1] was 5.25 nM; in assay [2] it was 3.75 nM; in [3], 4.99 nM; in assay [4] it was 22.9 nM; in [5] it was 8.19 nM; in assay [6], 28.9 nM. For the same compound, the GI50 in assay [7] was 10.1 nM; in assay [8], 3.26 nM; in [9], 6.56 nM; in [10], 0.0113 µM. Further, the TGI in [1] is 15.9 µM; in [2], > 79.3 µM; in assay [3], > 63.5 µM; in [4] it was 1.84 µM; in assay [6], > 100 µM; in assay [7], 7.65 µM. Also, the results for the TGI in assay [8], in assay [9] and in assay [10] were 1.42 µM, 34.6 µM and 26.8 µM, respectively.

Consider `S=C(Sc1ccc(Cl)cc1)Sc1ccc(Cl)cc1`, for which the GI50 in assay [1] is 1130 nM; in [2] it was 2530 nM; in assay [3], 1090 nM; in assay [4], 2030 nM; in assay [5] it was 362 nM; in assay [6] it was 2120 nM. Further, the GI50 in assay [7] was 2310 nM; in [8], 5040 nM; in assay [9], 3230 nM; in assay [10] it was 3.08 µM. Besides, the TGI in [1] came out at 2.37 µM; in assay [2], 5.27 µM; in assay [3] it was 3 µM; in assay [4] it was 3.95 µM; in assay [5], 2.03 µM; in assay [6], 5.34 µM. For the same compound, the TGI is 4.8 µM in [7], 16.6 µM in [8], 11 µM in [9] and 10.3 µM in assay [10].

Take `OCCNc1nc2ccccc2c2[nH]c3ccccc3c12`: the GI50 in assay [1] was 419 nM; in assay [2] it was 744 nM; in assay [3], 388 nM; in assay [4], 699 nM; in [5] it was 206 nM; in assay [6], 340 nM. Further, the GI50 in assay [7] was 487 nM; in assay [8] it was 944 nM; in [9] it was 278 nM; in assay [10], 0.527 µM. Besides, the TGI in assay [1] was determined as 1.8 µM; in assay [2] it was 5.16 µM; in [3] it was 3.91 µM; in assay [4], 2.03 µM; in [5] it was 5.95 µM; in assay [6], 11.4 µM. In addition, the TGI stood at 1.91 µM in assay [7], 2.33 µM in assay [8], 2.67 µM in [9] and 1.71 µM in assay [10].

For `OCc1ccc(-c2ccc(-c3ccc(CO)o3)o2)o1`, the GI50 in [1] is > 100000 nM; in assay [2], 2630 nM; in [3], > 100000 nM; in [4] it was > 100000 nM; in assay [5], > 100000 nM; in assay [6] it was > 100000 nM. Also, the GI50 in assay [7] is 8220 nM; in assay [8], 2850 nM; in assay [9], 35900 nM; in assay [10], > 82 µM. Further, the TGI was > 100 µM in assay [1]; 19.8 µM in assay [2]; > 100 µM in assay [3]; > 100 µM in assay [4]; > 100 µM in assay [5]; > 100 µM in assay [6]. The TGI is 69.6 µM in [7], 11.9 µM in assay [8], > 100 µM in assay [9] and > 100 µM in [10].

Turning to `O=C1Nc2ccc(-c3cccnc3)cc2/C1=C/c1cc(Br)c(O)c(Br)c1`, the GI50 in assay [1] was 4990 nM; in assay [2], 7820 nM; in assay [3], 5380 nM; in [4], 4450 nM; in assay [5], 8240 nM; in assay [6], 9120 nM. Also, the GI50 in [7] was 3960 nM; in assay [8] it was 4070 nM; in assay [9], 8150 nM; in [10], 8.58 µM. The TGI in assay [1] was > 25 µM; in assay [2], 24.3 µM; in [3], 19.7 µM; in [4] it was > 21.9 µM; in [5] it was > 25 µM; in [6], > 25 µM. The TGI in assay [7] is 23.9 µM; in assay [8], 9.36 µM; in assay [9] it was > 25 µM; in [10], > 25 µM.

In the case of `O=C(CI)NC(=O)NC(=O)NCc1ccccc1`, the GI50 in assay [1] was 1440 nM; in [2], 1860 nM; in assay [3], 3200 nM; in assay [4], 2890 nM; in assay [5], 804 nM; in assay [6] it was 3500 nM. Also, the GI50 in [7] is 1570 nM; in assay [8] it was 11500 nM; in [9] it was 1950 nM; in assay [10] it was 10.4 µM. In addition, the TGI came out at 3 µM in assay [1]; 4.12 µM in assay [2]; 9.71 µM in [3]; 10.8 µM in [4]; 3.1 µM in assay [5]; 14.6 µM in assay [6]. The TGI came to 3.52 µM in [7], 23.9 µM in assay [8], 3.76 µM in assay [9] and 22.9 µM in assay [10].
